According to ChEMBL document CHEMBL1142331, “Activation and inhibition of DNA methyltransferases by S-adenosyl-L-homocysteine analogues” (Bioorg Med Chem, 2008):
Activity calls are given as the source filed them. No cut-off for these calls is given here.

Columns and labels:
Escherichia coli [1] = assay: Inhibition of Escherichia coli DNA methyltransferase after 30 mins
[2] = Inhibition of Escherichia coli DNA methyltransferase measured by dixon plot
[3] = Inhibition of Escherichia coli DNA methyltransferase measured by secondary plot
ER1727 [4] = assay: Inhibition of M.HhaI DNA methyltransferase expressed in ER1727 cells after 30 mins; type: cell-based; details: Haemophilus haemolyticus
[5] = target: T1, DNA adenine methylase (Escherichia coli K-12) (UniProt P0AEE8); assay: Inhibition of Escherichia coli DNA adenine methyltransferase at 15 uM after 30 mins
T1 sequence (whole entry): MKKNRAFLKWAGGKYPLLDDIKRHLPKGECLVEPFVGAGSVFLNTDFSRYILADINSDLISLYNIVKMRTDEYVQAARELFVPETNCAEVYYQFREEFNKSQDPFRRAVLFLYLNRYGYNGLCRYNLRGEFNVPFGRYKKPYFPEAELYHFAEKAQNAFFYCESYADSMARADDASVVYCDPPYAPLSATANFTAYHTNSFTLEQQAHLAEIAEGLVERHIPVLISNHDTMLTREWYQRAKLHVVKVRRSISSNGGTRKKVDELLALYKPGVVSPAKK

Escherichia coli [6] = assay: Inhibition of Escherichia coli DNA methyltransferase assessed as fluorescence quenching measured
Escherichia coli [7] = assay: Inhibition of Escherichia coli DNA methyltransferase at 15 uM after 30 mins
ER1727 [8] = assay: Inhibition of M.HhaI DNA methyltransferase expressed in ER1727 cells at 15 uM after 30 mins; type: cell-based; details: Haemophilus haemolyticus
Haemophilus haemolyticus = assay: Activation of M.HhaI DNA methyltransferase upto 16 uM
Escherichia coli [9] = assay: Activation of Escherichia coli DNA methyltransferase upto 20 uM

Row | SMILES | Activity (Escherichia coli [7]) | Activity (ER1727 [8]) | further results
1 | Nc1ncnc2c1ncn2[C@@H]1O[C@H](CSCCC(=O)O)[C@@H](O)[C@H]1O | – | – | Activity (Escherichia coli [1]): Dose-dependent effect; IC50 [2]: 5 µM; Ki [3]: 5 µM; Activity (ER1727 [4]): Dose-dependent effect; Activity [5]: Active; Activity (Escherichia coli [6]): 22 µM
2 | C=C=CSC[C@H]1O[C@@H](n2cnc3c(N)ncnc32)[C@H](O)[C@@H]1O | inactive | inactive | –
3 | CC#CSC[C@H]1O[C@@H](n2cnc3c(N)ncnc32)[C@H](O)[C@@H]1O | inactive | inactive | –
4 | Nc1cccc2c1ncn2[C@@H]1O[C@H](CSCCC(=O)O)[C@@H](O)[C@H]1O | – | – | Activity (Haemophilus haemolyticus): Active; Activity [5]: Active; Activity (Escherichia coli [6]): 5.66 µM; Activity (Escherichia coli [9]): Active
5 | CCOC(=O)CCSC[C@H]1O[C@@H](n2cnc3c(N)ncnc32)[C@H](O)[C@@H]1O | inactive | inactive | Activity (Escherichia coli [6]): inactive
6 | NC(=O)CCSC[C@H]1O[C@@H](n2cnc3c(N)ncnc32)[C@H](O)[C@@H]1O | inactive | inactive | –
7 | Nc1ncnc2c1ncn2[C@@H]1O[C@H](CSCC[C@H](N)C(=O)O)[C@@H](O)[C@H]1O | Active | Active | –
8 | C#CCSC[C@H]1O[C@@H](n2cnc3c(N)ncnc32)[C@H](O)[C@@H]1O | inactive | inactive | –

More lines, main results first:

Row | Activity (Escherichia coli [7]) | SMILES | Activity (ER1727 [8]) | further results
9 | inactive | C=CCSC[C@H]1O[C@@H](n2cnc3c([N+](=O)[O-])cccc32)[C@H](O)[C@@H]1O | inactive | –
10 | inactive | CSC[C@H]1O[C@@H](n2cnc3c(N)ncnc32)[C@H](O)[C@@H]1O | inactive | –
11 | inactive | Nc1ncnc2c1ncn2[C@@H]1O[C@H](CCl)[C@@H](O)[C@H]1O | inactive | –
12 | inactive | O=[N+]([O-])c1cccc2c1ncn2[C@@H]1O[C@H](CO)[C@@H](O)[C@H]1O | inactive | –
